Earlier results, collected in paper PMC12506672, “A phase I study of HEC73543, an oral FLT3 inhibitor: the effect of food on pharmacokinetics after oral dosing in healthy Chinese volunteers” (Frontiers in Pharmacology, 2025).

Legend:
[1] = test system: FLT3-ITD–positive leukemia samples; parameters: method as in Cucchi et al., 2018; settings: ex vivo, especially high allelic ratio (AR ≥ 0.5); ref Cucchi et al., 2018
[2] = parameters: method as in James et al., 2020; settings: high-fat meal, healthy subjects; ref James et al., 2020
[3] = parameters: method as in Kim, 2017; settings: standard or high-fat meal compared to fasting; ref Kim, 2017

| Structure (SMILES) | colony-forming capacity [1] | GLSM ratio (fed/fasted %) for AUC0–t [2] [%] | GLSM ratio (fed/fasted %) for AUC0–∞ [2] [%] | GLSM ratio (fed/fasted %) for AUC72 [2] [%] | GLSM ratio (fed/fasted %) for Cmax [2] [%] | delay of Tmax with food [3] [h] | increase of AUC exposure with food [3] | lowering of Cmax with food [3] |
| --- | --- | --- | --- | --- | --- | --- | --- | --- |
| CCc1nc(C(N)=O)c(Nc2ccc(N3CCC(N4CCN(C)CC4)CC3)c(OC)c2)nc1NC1CCOCC1 [gilteritinib] | markedly suppresses | 94.6 | 93.8 | 91.0 | 74.0 |  |  |  |
| CO[C@@H]1[C@H](N(C)C(=O)c2ccccc2)C[C@H]2O[C@]1(C)n1c3ccccc3c3c4c(c5c6ccccc6n2c5c31)C(=O)NC4 [midostaurin] |  |  |  |  |  | 2.5 to 3 | 1.2- to 1.6 fold | 20%–27% |
